The record followed here is patent US7560458B2, “Triazolopyrimidine derivatives as glycogen synthase kinase 3 inhibitors” (Janssen Pharmaceutica, N.V., priority 2003, dated 2009).

Where only a bound is given, the exact number is not on record here.

In one assay the target is GSK3β (Homo sapiens, UniProt P49841). Put plainly: GSK3beta assay (SPA, biotinylated phosphorylated CREB peptide, ATP-P33). The conditions noted are these: −log IC50 (M); given as ranges (>8; 7-8; <7); read-out: pIC50 (GSK3beta) (converted). In kind it is biochemical. A digest of the protocol: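 Radiometric SPA at room temperature, pH 7.4 Tris/MgCl2/DTT/BSA/glycerol, with 5.7 ng/μl GSK3β, 5 μM biotinylated phospho-CREB peptide, 1 μM ATP plus 33P-ATP for 1 h. Stopped with streptavidin SPA beads, counted after overnight settling; % inhibition versus no-compound control, IC50 from dose-response curve.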
Chain of GSK3β (P49841 whole entry, species assumed): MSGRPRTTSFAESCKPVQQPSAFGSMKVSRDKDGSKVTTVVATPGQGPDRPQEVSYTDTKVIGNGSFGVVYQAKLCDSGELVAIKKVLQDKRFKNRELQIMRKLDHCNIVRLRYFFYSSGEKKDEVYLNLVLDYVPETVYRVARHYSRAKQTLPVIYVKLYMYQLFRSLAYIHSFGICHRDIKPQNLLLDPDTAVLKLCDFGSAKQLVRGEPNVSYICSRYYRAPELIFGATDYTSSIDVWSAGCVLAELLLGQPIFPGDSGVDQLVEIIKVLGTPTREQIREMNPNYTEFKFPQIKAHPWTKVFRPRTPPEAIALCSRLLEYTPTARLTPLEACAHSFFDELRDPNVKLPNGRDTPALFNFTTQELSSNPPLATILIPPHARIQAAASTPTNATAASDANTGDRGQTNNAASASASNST

The target of another assay is GSK3alpha (Homo sapiens, UniProt P49840). Put plainly: GSK3alpha assay (same as the GSK3beta assay, GSK3alpha 0.25 ng/μl). The conditions noted are these: −log IC50 (M); given as ranges (>8; 7-8; <7); read-out: pIC50 (GSK3alpha) (converted). In kind it is biochemical. The method, boiled down: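 GSK3α at 0.25 ng/μl phosphorylated 5 μM biotinylated phospho-CREB peptide with 1 μM ATP and 33P-ATP for 1 h at room temperature, in 25 mM Tris pH 7.4 with 10 mM MgCl2 and 1 mM DTT. Phosphorylated peptide was captured on streptavidin SPA beads and counted. IC50 was taken from dose-response curves.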
Chain of GSK3alpha (P49840 whole entry, species assumed): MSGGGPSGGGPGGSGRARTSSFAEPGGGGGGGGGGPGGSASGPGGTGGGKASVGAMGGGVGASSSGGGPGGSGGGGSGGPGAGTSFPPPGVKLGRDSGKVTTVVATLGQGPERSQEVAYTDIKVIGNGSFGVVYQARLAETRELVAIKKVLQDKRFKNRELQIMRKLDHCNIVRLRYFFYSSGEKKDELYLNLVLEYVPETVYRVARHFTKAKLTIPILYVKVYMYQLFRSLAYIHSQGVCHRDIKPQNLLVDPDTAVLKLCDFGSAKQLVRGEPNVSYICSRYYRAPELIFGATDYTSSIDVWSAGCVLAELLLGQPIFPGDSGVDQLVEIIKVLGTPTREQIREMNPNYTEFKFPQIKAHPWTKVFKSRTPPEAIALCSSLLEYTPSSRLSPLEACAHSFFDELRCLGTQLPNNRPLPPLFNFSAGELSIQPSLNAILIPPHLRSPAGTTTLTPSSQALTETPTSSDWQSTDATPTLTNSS

In the case of `COc1cc(Nc2ncc3nnn(-c4cccc(CCO)c4)c3n2)ccc1F` [Compound 171], the IC50 on GSK3β and at GSK3alpha was under 1e-08 M in each case.

Regarding `OCCc1cccc(Nc2ncc3nnn(-c4cccc(CCO)c4)c3n2)c1` [Compound 172], the IC50 at GSK3β and at GSK3alpha was under 1e-08 M in each case.

On to `COc1ccc(Nc2ncc3nnn(-c4cccc(CCO)c4)c3n2)cn1` [Compound 173], for which the IC50 at GSK3β and at GSK3alpha was under 1e-08 M each time.

For the molecule `COCC(=O)NCc1cccc(-n2nnc3cnc(Nc4ccc(S(N)(=O)=O)cc4)nc32)c1` [Compound 174], the IC50 at GSK3β and at GSK3alpha was under 1e-08 M in each case.

`COCC(=O)NCc1cccc(-n2nnc3cnc(Nc4cccc(C#N)c4)nc32)c1` [Compound 175]: the IC50 at GSK3β and on GSK3alpha was under 1e-08 M each time.

For `NC(=O)CNC(=O)c1cccc(Nc2ncc3nnn(-c4cccc(CC(=O)O)c4)c3n2)c1` [Compound 176], the IC50 on GSK3β and on GSK3alpha was 1e-08 to 1e-07 M each time.

Take `CS(=O)(=O)Nc1cccc(Nc2ncc3nnn(-c4cccc(CC(=O)O)c4)c3n2)c1` [Compound 180]: the IC50 at GSK3β and at GSK3alpha was 1e-08 to 1e-07 M throughout.

With `CC(C)CC(=O)NCc1cccc(-n2nnc3cnc(Nc4cccc(C#N)c4)nc32)c1` [Compound 185], the IC50 on GSK3β and on GSK3alpha was under 1e-08 M in each case.

As to `CC(C)CC(=O)NCc1cccc(-n2nnc3cnc(Nc4cccc(C(=O)NCCO)c4)nc32)c1` [Compound 186], the IC50 was 1e-08 to 1e-07 M on GSK3β and under 1e-08 M on GSK3alpha.

Regarding `COCc1cccc(Nc2ncc3nnn(-c4cccc(CNC(=O)CC(C)C)c4)c3n2)c1` [Compound 188], the IC50 on GSK3β and on GSK3alpha was under 1e-08 M each time.

On to `CC(C)CC(=O)NCc1cccc(-n2nnc3cnc(Nc4cccc(NS(C)(=O)=O)c4)nc32)c1` [Compound 189], for which the IC50 on GSK3β and on GSK3alpha was under 1e-08 M each time.

In the case of `CC(C)CC(=O)NCc1cccc(-n2nnc3cnc(Nc4ccc(C#N)cc4)nc32)c1` [Compound 190], the IC50 was 1e-08 M on GSK3β and under 1e-08 M at GSK3alpha.

Regarding `CC(C)CC(=O)NCc1cccc(-n2nnc3cnc(Nc4ccc(C(N)=O)cc4)nc32)c1` [Compound 191], the IC50 at GSK3β and on GSK3alpha was under 1e-08 M in each case.

Take `CC(C)CC(=O)NCc1cccc(-n2nnc3cnc(Nc4ccc(C(=O)NCC(=O)O)cc4)nc32)c1` [Compound 192]: the IC50 on GSK3β and at GSK3alpha was under 1e-08 M in each case.

Turning to `CC(C)CC(=O)NCc1cccc(-n2nnc3cnc(Nc4ccc(C(=O)O)cc4)nc32)c1` [Compound 193], the IC50 on GSK3β and at GSK3alpha was 1e-08 to 1e-07 M each time.

Consider `CC(C)CC(=O)NCc1cccc(-n2nnc3cnc(Nc4ccc(CC(=O)O)cc4)nc32)c1` [Compound 194], for which the IC50 on GSK3β is 1e-08 to 1e-07 M; at GSK3alpha, under 1e-08 M.

Take `CC(C)CC(=O)NCc1cccc(-n2nnc3cnc(Nc4ccc(CCO)cc4)nc32)c1` [Compound 195]: the IC50 at GSK3β is 1e-08 to 1e-07 M; at GSK3alpha it was under 1e-08 M.

On to `CC(C)CC(=O)NCc1cccc(-n2nnc3cnc(Nc4ccc(S(N)(=O)=O)cc4)nc32)c1` [Compound 197], for which the IC50 at GSK3β and at GSK3alpha was under 1e-08 M each time.

Regarding `O=C(NCCO)c1cccc(Nc2ncc3nnn(-c4cccc(CNC(=O)C5CC5)c4)c3n2)c1` [Compound 200], the figures for the IC50 at GSK3β and at GSK3alpha were 1e-08 to 1e-07 M and under 1e-08 M, respectively.

With `COCc1cccc(Nc2ncc3nnn(-c4cccc(CNC(=O)C5CC5)c4)c3n2)c1` [Compound 201], the IC50 at GSK3β and at GSK3alpha was under 1e-08 M throughout.

For the molecule `CS(=O)(=O)Nc1cccc(Nc2ncc3nnn(-c4cccc(CNC(=O)C5CC5)c4)c3n2)c1` [Compound 202], the IC50 on GSK3β and on GSK3alpha was under 1e-08 M throughout.

As for `N#Cc1ccc(Nc2ncc3nnn(-c4cccc(CNC(=O)C5CC5)c4)c3n2)cc1` [Compound 203], the IC50 was 1e-08 to 1e-07 M on GSK3β and under 1e-08 M at GSK3alpha.

With `O=C(O)CNC(=O)c1ccc(Nc2ncc3nnn(-c4cccc(CNC(=O)C5CC5)c4)c3n2)cc1` [Compound 205], the IC50 on GSK3β and at GSK3alpha was under 1e-08 M in each case.

With `O=C(O)c1ccc(Nc2ncc3nnn(-c4cccc(CNC(=O)C5CC5)c4)c3n2)cc1` [Compound 206], the IC50 on GSK3β and at GSK3alpha was under 1e-08 M throughout.

In the case of `O=C(O)Cc1ccc(Nc2ncc3nnn(-c4cccc(CNC(=O)C5CC5)c4)c3n2)cc1` [Compound 207], the IC50 at GSK3β and at GSK3alpha was under 1e-08 M each time.

For `O=C(NCc1cccc(-n2nnc3cnc(Nc4ccc(CCO)cc4)nc32)c1)C1CC1` [Compound 208], the IC50 on GSK3β and on GSK3alpha was under 1e-08 M throughout.

For the molecule `COc1ccc(Nc2ncc3nnn(-c4cccc(CNC(=O)C5CC5)c4)c3n2)cn1` [Compound 209], the IC50 at GSK3β and at GSK3alpha was 1e-08 to 1e-07 M each time.

With `NS(=O)(=O)c1ccc(Nc2ncc3nnn(-c4cccc(CNC(=O)C5CC5)c4)c3n2)cc1` [Compound 210], the IC50 at GSK3β and on GSK3alpha was under 1e-08 M in each case.

For the molecule `O=C(O)c1ccc(Nc2ncc3nnn(-c4cccc(CNC(=O)C5CC5)c4)c3n2)cc1Cl` [Compound 212], the IC50 at GSK3β and on GSK3alpha was under 1e-08 M throughout.

Consider `CCOC(=O)NCc1cccc(-n2nnc3cnc(Nc4cccc(C#N)c4)nc32)c1` [Compound 214], for which the IC50 on GSK3β and on GSK3alpha was under 1e-08 M in each case.

As for `CCOC(=O)NCc1cccc(-n2nnc3cnc(Nc4cccc(COC)c4)nc32)c1` [Compound 216], the IC50 at GSK3β and at GSK3alpha was under 1e-08 M in each case.

Take `CCOC(=O)NCc1cccc(-n2nnc3cnc(Nc4cccc(NS(C)(=O)=O)c4)nc32)c1` [Compound 217]: the IC50 on GSK3β and on GSK3alpha was under 1e-08 M throughout.

As for `CCOC(=O)NCc1cccc(-n2nnc3cnc(Nc4ccc(C(N)=O)cc4)nc32)c1` [Compound 218], the IC50 at GSK3β and on GSK3alpha was under 1e-08 M in each case.

For `CCOC(=O)NCc1cccc(-n2nnc3cnc(Nc4ccc(CC(=O)O)cc4)nc32)c1` [Compound 219], the IC50 on GSK3β and on GSK3alpha was under 1e-08 M throughout.

Consider `CCOC(=O)NCc1cccc(-n2nnc3cnc(Nc4ccc(CCO)cc4)nc32)c1` [Compound 220], for which the IC50 on GSK3β and on GSK3alpha was under 1e-08 M in each case.

`CCOC(=O)NCc1cccc(-n2nnc3cnc(Nc4ccc(OC)nc4)nc32)c1` [Compound 221]: the IC50 at GSK3β and on GSK3alpha was under 1e-08 M each time.

Turning to `CCOC(=O)NCc1cccc(-n2nnc3cnc(Nc4cccc([S+](C)[O-])c4)nc32)c1` (centres unmarked) [Compound 223], the IC50 at GSK3β and on GSK3alpha was under 1e-08 M in each case.

As to `NS(=O)(=O)c1ccc(Nc2ncc3nnn(-c4cccc(C(=O)NCCO)c4)c3n2)cc1` [Compound 227], the IC50 on GSK3β was 1e-08 to 1e-07 M; on GSK3alpha, under 1e-08 M.

For the molecule `NC(=O)c1cccc(-n2nnc3cnc(Nc4ccc(C(=O)O)cc4)nc32)c1` [Compound 228], the IC50 at GSK3β and at GSK3alpha was under 1e-08 M in each case.

In the case of `N#Cc1ccc(Nc2ncc3nnn(-c4cccc(C(=O)NCCO)c4)c3n2)cc1` [Compound 229], the IC50 on GSK3β and at GSK3alpha was under 1e-08 M each time.

As to `CS(=O)(=O)Nc1cccc(Nc2ncc3nnn(-c4cccc(CNC(=O)C56CC7CC(CC(C7)C5)C6)c4)c3n2)c1` [Compound 235], the IC50 was 1e-08 to 1e-07 M at GSK3β and under 1e-08 M on GSK3alpha.

For the molecule `NC(=O)c1ccc(Nc2ncc3nnn(-c4cccc(CNC(=O)C56CC7CC(CC(C7)C5)C6)c4)c3n2)cc1` [Compound 237], the IC50 was 1e-08 to 1e-07 M on GSK3β and 1e-08 M on GSK3alpha.

`O=C(O)CNC(=O)c1ccc(Nc2ncc3nnn(-c4cccc(CNC(=O)C56CC7CC(CC(C7)C5)C6)c4)c3n2)cc1` [Compound 238]: the IC50 at GSK3β and at GSK3alpha was under 1e-08 M each time.

With `O=C(O)c1ccc(Nc2ncc3nnn(-c4cccc(CNC(=O)C56CC7CC(CC(C7)C5)C6)c4)c3n2)cc1` [Compound 239], the IC50 was 1e-08 to 1e-07 M at GSK3β and 1e-08 M at GSK3alpha.

As for `O=C(O)Cc1ccc(Nc2ncc3nnn(-c4cccc(CNC(=O)C56CC7CC(CC(C7)C5)C6)c4)c3n2)cc1` [Compound 240], the IC50 on GSK3β and at GSK3alpha was 1e-08 to 1e-07 M in each case.

Take `O=C(NCc1cccc(-n2nnc3cnc(Nc4ccc(CCO)cc4)nc32)c1)C12CC3CC(CC(C3)C1)C2` [Compound 241]: the IC50 at GSK3β and on GSK3alpha was 1e-08 to 1e-07 M throughout.

With `NS(=O)(=O)c1ccc(Nc2ncc3nnn(-c4cccc(CNC(=O)C56CC7CC(CC(C7)C5)C6)c4)c3n2)cc1` [Compound 243], the IC50 on GSK3β and at GSK3alpha was 1e-08 to 1e-07 M throughout.

For `COc1cccc(-n2nnc3cnc(Nc4ccc(C(=O)O)cc4)nc32)c1` [Compound 246], the IC50 on GSK3β and on GSK3alpha was under 1e-08 M each time.

As for `O=C(O)c1ccc(Nc2ncc3nnn(-c4cccc(C(=O)NCCO)c4)c3n2)cc1` [Compound 247], the values for the IC50 at GSK3β and on GSK3alpha were 1e-08 to 1e-07 M and under 1e-08 M, respectively.

On to `CC(=O)NCc1cccc(-n2nnc3cnc(Nc4ccc(S(N)(=O)=O)cc4)nc32)c1` [Compound 248], for which the IC50 at GSK3β and on GSK3alpha was under 1e-08 M in each case.

In the case of `COCc1cccc(-n2nnc3cnc(Nc4ccc(C(=O)O)c(C)c4)nc32)c1` [Compound 249], the IC50 on GSK3β and on GSK3alpha was under 1e-08 M throughout.

With `NC(=O)Cc1cccc(-n2nnc3cnc(Nc4ccc(F)cc4)nc32)c1` [Compound 254], the IC50 at GSK3β and on GSK3alpha was under 1e-08 M in each case.
